Assay results: paper PMC6259748, “Selection of Peptides Targeting Helix 31 of Bacterial 16S Ribosomal RNA by Screening M13 Phage-Display Libraries” (Molecules, 2011)
Entries after “also recorded” stand apart in the source; their conditions may differ.

Tests used:
[1] = system: translation of green fluorescent protein (GFP); experiment: coupled in vitro transcription-translation inhibition assay (GFP); assay type: biochemical, E. coli
Procedure: A cell-free translation assay was used to test the potential inhibitory effects of the peptides on protein synthesis. Different concentrations of peptides were added to E. coli S30 extracts and the extent of inhibition was monitored by the measurement of green fluorescent protein (GFP) translation.
The inhibitory effects of selected peptides (DIRTQRE, CVRPFAL, FVRPFAL, TLWDLIP and TYLPWPA) on cellular processes were determined by in vitro coupled transcription-translation inhibition assay. The PURExpress™ in vitro protein synthesis kit #E6800S from New England Biolabs (Beverly, MA) was used for this purpose. A DNA template for GFP (pRSETEmGFP plasmid, Invitrogen) was employed at a concentration of 10 µg/mL in a 15 µL of reaction volume. Different concentrations of peptides were added, ranging from 300 µM to 2 mM. The DNA template was added only after mixing of the peptides or streptomycin so that they could bind to their target region first. For the control, streptomycin was added at a final concentration of 300 µM. The reaction was incubated in 384-well, Costar, clear-well, black plates and in situ incubated at 37 °C in a Gemini XPS microplate spectrofluorometer (Molecular Devices, Sunnyvale, CA) and the amount of GFP produced was monitored at different time intervals from 0 min to 2 h by fluorescence (excitation at 487 nm, emission at 509 nm).

[2] = system: GFP-S11-labeled 30S subunits; experiment: ribosome-binding assay on Tentagel beads; set-up: species or system E. coli
Procedure: The purpose of this experiment was to determine whether the selected peptides have affinity for bacterial ribosomes. The binding affinities of various peptides could also be compared by this method. Small ribosomal subunits, 30S, labeled with GFP on ribosomal protein S11 were added to peptides covalently attached to Tentagel beads (Figure 4A). […] The peptides were chemically synthesized on Tentagel beads with their N-termini exposed. Increasing concentrations of GFP-tagged 30S subunits were added to the Tentagel-bound peptides and unbound 30S subunits were removed by washing. Relative fluorescence intensity of the 30S subunits bound to the peptides on bead was determined by imaging on a fluorescence microscope, with the assumption that the level of fluorescence on the beads was proportional to the affinity of the ribosome for the peptide sequence.
Four peptides isolated from the phage-display experiment, […], DIRTQRE, TLWDLIP, and […], were synthesized on Tentagel (Rapp Polymer, Tübingen, Germany) beads using standard Fmoc synthesis. The beads were stored in DMF until use. The beads were then washed three times with 450 μl of water, and three times with 450 μL of the binding buffer B (binding buffer: 20 mM HEPES, pH 7.3, 10 mM MgCl2, 100 mM KCl), using 0.45 μm MWCO Nanosep (Pall Corporation, Ann Arbor, MI). The beads were then centrifuged at 6,000 rpm for 1–2 min.
(§1) Fluorescently labeled 30S subunits were isolated by sucrose gradient centrifugation in 5 mM Mg^2+ [82]. For control experiments, His(6)-EmGFP-S11 was purified using IMAC resin (Bio-Rad, Hercules, CA) and the fluorescence was assayed using beads carrying peptides with ribosomes, beads carrying peptides with His(6)-EmGFP-S11 (no ribosomes) and beads only with ribosomes (no peptides).
(§2) The fluorescent ribosomes were incubated in binding buffer B (20 mM HEPES, pH 7.3, 10 mM MgCl2, 100 mM KCl) at 37 °C for 30 min. Next, 25 pmoles of ribosome solution was added to each peptide, and the mixture was incubated overnight at 4 °C with agitation. Unbound ribosomes were removed by two 450 μL washes with binding buffer B and centrifugation at 6,000 rpm for 1–2 min. The beads were resuspended in 40 μL of binding buffer B for microscope screening and kept on ice until scanning. The beads (20 μL) were spread on microscope slides for scanning (Olympus 1X71 microscope, TH4 100 Olympus lamp, Olympus UCMAD 3 camera, 20× magnification). An average of two pictures were taken per slide, eliminating beads presenting uneven swelling and cracks.

[3] = system: His(6)-EmGFP-S11 protein; experiment: bead control with S11-emGFP protein (no ribosomes); assay type: binding, E. coli; settings: purified His(6)-EmGFP-S11 added to peptide on beads
Procedure: The fluorescence intensity of each set of beads containing the selected peptides was quantified.
as §1, §2

[4] = system: wild-type modified h31; experiment: surface plasmon resonance (SPR), modified h31; assay type: binding, E. coli; settings: for ka (association rate constant) / kd (dissociation rate constant): 1:1 Langmuir, 150 mM NaCl, 50 μL/min, 25 °C, CM5 chip; for ka (association rate constant): 10 mM Tris·HCl, 10 mM MgCl2, 1 mM DTT, 0.005% P20, pH 7.5; for kd (dissociation rate constant): pH 7.5, 10 mM MgCl2
Procedure: Modified h31 was labeled with biotin in order to immobilize the RNA onto a surface and determine the kinetics of peptide binding by surface plasmon resonance (SPR). […] In order to enhance the signal-to-noise ratio, a GFP-protein-fused peptide, TYLPWPA-GFP, was generated and used as the analyte.
Biotinylated, modified h31 RNA was immobilized onto a streptavidin-coated CM5 chip and differing concentrations of TYLPWPA-GFP (10–100 µM) were injected as the analyte. A range of salt concentrations, detergent levels, pH conditions, and flow rates were tested, since these factors affect the peptide-RNA complex formation (data not shown). The apparent dissociation constants were determined under the following optimized conditions: 10 mM Tris·HCl, 150 mM NaCl, 10 mM MgCl2, 1 mM dithiothreitol (DTT), 0.005% (v/v) P20 at pH 7.5 as the running buffer at a flow rate of 50 μL/min.
All immobilization and subsequent binding studies were performed using a BIAcore 2000 instrument set at a temperature of 25 °C. Standard dextran surface BIAcore sensorchips (Sensor chip CM5) were purchased from BIAcore (GE Healthcare, Piscataway, NJ). Standard desorb and sanitize routines were performed according to the BIAcore guidelines before docking a new CM5 sensor chip. All buffers were filtered through sterile 0.2 μm nylon membranes (Millipore™) under vacuum. Before derivatizing the flow cells with streptavidin, the CM5 sensor chip was pre-conditioned using three successive 10 μL injections of chip-preparation solution (10 mM NaOH, 500 mM NaCl) at 100 μL/min, followed by a normalization routine using BIAnormalizing solution (40% glycerol). Streptavidin derivatization was performed according to standard procedures.
Prior to immobilization, the solution of biotinylated RNA in HBS-EP buffer (10 mM HEPES, 3 mM EDTA, 150 mM NaCl, 0.005% P20 at pH 7.4) was renatured by heating to 90 °C for 2 min, cooling gradually to room temperature, and placing on ice. Flow cells were functionalized by injecting 30 μL of RNA at a time using the MANUAL INJECT command at a flow rate of 10 μL/min, until the desired immobilization level was reached. One of the flow cells was used to immobilize RNA, while the adjacent cell remained unmodified to serve as a blank-control for matrix effects. Levels of RNA captured were calculated by subtracting […] for each flow cell. After RNA immobilization, both flow cells were blocked with 100 μL of 1 mg/mL biotin at 5 μL/min.
For the SPR experiments, the peptides were cloned into plasmid pBacEmGH (Cunningham Lab, to be described elsewhere) under transcriptional regulation of a PBAD promoter. Upon induction with L-arabinose, the resulting construct produces a fusion protein in which the peptide is fused to the N-terminus of EmGFP containing a C-terminus 6 x His affinity tag (PEP-EmGFP-6 x His).
Peptide samples were prepared by serial dilutions from stock solutions. Dilutions were made in running buffer (10 mM Tris·HCl, 150 mM NaCl, 10 mM MgCl2, 1 mM DTT, 0.005% (v/v) P20 at pH 7.5). All procedures for binding were automated, as optimized methods using repetitive cycles of sample injection and regeneration. Typically, running buffer was injected for ~30 min prior to experiment to establish a stable baseline value. Peptide solutions (200 μL) were injected at a kinetic flow rate of 50 μL/min, using the KINJECT command. All peptide samples were injected from 7 mm plastic vials (BIAcore) that were capped with pierceable plastic-crimp-caps to minimize carry-over and sample evaporation. Samples were injected in order of increasing concentration. The surface was regenerated using 150 μL of 500 mM NaCl. The data were fit to a 1:1 binding Langmuir model using BIAevaluation 3.0 software. […]

[5] = target: wild-type modified h31; experiment: surface plasmon resonance (SPR), modified h31; assay type: binding, E. coli; settings: SPR kinetic analysis, 1:1 Langmuir; pH 7.5; 150 mM NaCl, 10 mM MgCl2; 50 μL/min; 25 °C; analyte 0–1 μM
[6] = system: unmodified h31; experiment: surface plasmon resonance (SPR), unmodified h31; assay type: binding, E. coli; settings: analyte 1 μM; ~200 fmoles RNA immobilized; injection time 1 min
Procedure: All immobilization and subsequent binding studies were performed using a BIAcore 2000 instrument set at a temperature of 25 °C. Standard dextran surface BIAcore sensorchips (Sensor chip CM5) were purchased from BIAcore (GE Healthcare, Piscataway, NJ). Standard desorb and sanitize routines were performed according to the BIAcore guidelines before docking a new CM5 sensor chip. All buffers were filtered through sterile 0.2 μm nylon membranes (Millipore™) under vacuum. […]
Prior to immobilization, the solution of biotinylated RNA in HBS-EP buffer (10 mM HEPES, 3 mM EDTA, 150 mM NaCl, 0.005% P20 at pH 7.4) was renatured by heating to 90 °C for 2 min, cooling gradually to room temperature, and placing on ice. […] Levels of RNA captured were calculated by subtracting response units after injection from response units before injection for each flow cell. […]
Kinetic constants were determined by integration of the experimental data using the differential rate equation dRU/dt = ka·C·(RUmax-RU)-kd·RU to obtain ka and kd values simultaneously (RU = observed response, RUmax = maximum response upon saturation, C = analyte concentration, ka = association rate constant, kd = dissociation rate constant). […]

Substance | inhibition of in vitro protein synthesis ([1]; cell-free translation, summary statement) | order of translation inhibition by peptides (from high to low) ([1]; peptides at 1 mM, 37 °C, GFP fluorescence) | order of binding preference by the 30S subunits (from high to low) ([2]; Tentagel beads, fluorescence microscopy, pH 7.3) | fluorescence on beads after 30S binding ([2]; peptide on Tentagel beads, 30S subunits overnight at 4 °C, 20 mM HEPES, pH 7.3, 10 mM MgCl2, 100 mM KCl, duplicate) | fluorescence on beads with S11-emGFP protein [3] | binding affinity to modified h31 ([4]; in words, comparable to known antibiotics targeting 16S rRNA) | ka (association rate constant) [4] | kd (dissociation rate constant) [4] | KD (kd/ka) [5] [µM] | binding interaction with unmodified h31 [6]
TLWDLIP [heptapeptide selected against modified h31, with and without counter selection] | inhibit in vitro protein synthesis | CVRPFAL ≈ FVRPFAL > TLWDLIP > TYLPWPA > DIRTQRE | TYLPWPA > CVRPFAL ≈ TLWDLIP > DIRTQRE | Fluorescence is observed | did not show any fluorescence; also recorded: fluorescence was not observed | high nM |  |  |  | 
TLWDLIP-GFP |  |  |  |  |  |  | (93 ± 2) × 10^2 M^-1s^-1 | (3.1 ± 0.3) × 10^-3 s^-1 | 0.33 ± 0.007 | 
CVRPFAL-GFP |  |  |  |  |  |  | (120 ± 1) × 10^2 M^-1s^-1 | (2.6 ± 0.02) × 10^-3 s^-1 |  | did not reveal any binding interactions; also recorded: No binding interaction was detected
